Measured values taken from patent US20150148235A1, “HERBICIDE-RESISTANT SUNFLOWER PLANTS WITH MULTIPLE HERBICIDE RESISTANT ALLELES OF AHASL1 AND METHODS OF USE” (NIDERA S.A., priority 2013, published 2015).
Where “and” joins values, the source holds several entries; their conditions need not be identical. Equal values may be shown once. Marks after values point to notes of the source that are not given here.

System: sunflower lines (WT, A122T/A122T, A122T/P197L, P197L/P197L)
Assay: Greenhouse whole-plant response to metsulfuron methyl, Example 5
Assay type: in vivo, Helianthus annuus
Conditions: 14 DAT
Description: Seeds were sown in Petri dishes and, after germination, plantlets were transplanted into 10 cm pots containing potting media consisting of equal parts of vermiculite, soil, and sand. Plants were grown in the greenhouse under natural light conditions supplemented with 400 W sodium halide lamps to provide a 16 hr daylength. Day/night temperatures were 25 and 20° C., respectively. At the V2-V4 stage (Schneiter & Miller, 1981) 20 plants of each genotype were randomly assigned to each treatment consisting of three metsulfuron methyl doses (0 or no treatment, 5 g ai/ha or a 1× rate, and 10 g ai/ha or a 2× rate). A zero-time biomass determination was also conducted. The experiment was arranged as a randomized complete block design (RCBD) with a full factorial arrangement of treatments and 20 replications (sunflower line×treatment).
For the zero-time dried weight determination, ten plants of each genotype were cut at the cotyledonal node on the day of herbicide application and dried at 60° C. for 48 hr. The rest of the plants were maintained for 14 days after herbicide treatment (DAT) and their height, Phytotoxicity Index (PI) and above ground dry biomass were recorded. Height was determined as the distance between the cotyledonal node and the apex of each plant. The above ground biomass data for each line was converted to biomass accumulation after application by subtracting the appropriate average zero-time biomass from each sample. Height and dry biomass were converted to a percentage of the untreated control for each line to allow direct comparisons between groups.
The data was subjected to an ANOVA and the means were compared by an LSD test.

[1] = BTSu-R1 (P197L/P197L), 1X (5 g ai./ha)
[2] = BTSu-R1 (P197L/P197L), 2X (10 g ai./ha)
[3] = GM40 (A122T/A122T), 1X (5 g ai./ha)
[4] = GM40 (A122T/A122T), 2X (10 g ai./ha)
[5] = GM1606 (A122T/A122T), 1X (5 g ai./ha)
[6] = GM1606 (A122T/A122T), 2X (10 g ai./ha)
[7] = L4 (A122T/A122T), 1X (5 g ai./ha)
[8] = L4 (A122T/A122T), 2X (10 g ai./ha)
[9] = cmsGM40xBTSu-R1 (A122T/P197L), 1X (5 g ai./ha)
[10] = cmsGM40xBTSu-R1 (A122T/P197L), 2X (10 g ai./ha)
[11] = cmsGM40xL4 (A122T/A122T), 1X (5 g ai./ha)
[12] = cmsGM40xL4 (A122T/A122T), 2X (10 g ai./ha)

SMILES: COC(=O)c1ccccc1S(=O)(=O)NC(=O)Nc1nc(C)nc(OC)n1 [metsulfuron]
- Dry Matter accumulation (DMA) (B770 (WT), 1X (5 g ai./ha)): 28.43^b %
- Phytotoxicity Index (PI) (scale 0-9) (B770 (WT), 1X (5 g ai./ha)): 8.50^bc
- Dry Matter accumulation (DMA) (B770 (WT), 2X (10 g ai./ha)): 28.77^b %
- Mean Height Reduction (PH) (B770 (WT), 2X (10 g ai./ha)): 18.20^a %
- Phytotoxicity Index (PI) (scale 0-9) (B770 (WT), 2X (10 g ai./ha)): 9.00^d
- Dry Matter accumulation (DMA) [1]: 88% and 88.1% and 88.10^d %
- Mean Height Reduction (PH) [1]: 79.01^b %
- Dry Matter accumulation (DMA) [2]: 77% and 76.69^c %
- Mean Height Reduction (PH) [2]: 80.85^c %
- Dry Matter accumulation (DMA) [3]: 25.73^ab %
- Mean Height Reduction (PH) [3]: 21.39^a %
- Phytotoxicity Index (PI) (scale 0-9) [3]: 9.00^d
- Dry Matter accumulation (DMA) [4]: 20.69^a %
- Mean Height Reduction (PH) [4]: 21.17^a %
- Phytotoxicity Index (PI) (scale 0-9) [4]: 9.00^d
- Dry Matter accumulation (DMA) [5]: 30.39^b %
- Mean Height Reduction (PH) [5]: 21.55^a %
- Phytotoxicity Index (PI) (scale 0-9) [5]: 8.70^d
- Dry Matter accumulation (DMA) [6]: 20.45^a %
- Mean Height Reduction (PH) [6]: 21.70^a %
- Phytotoxicity Index (PI) (scale 0-9) [6]: 9.00^d
- Dry Matter accumulation (DMA) [7]: 25.40^ab %
- Mean Height Reduction (PH) [7]: 19.47^a %
- Phytotoxicity Index (PI) (scale 0-9) [7]: 8.25^b
- Dry Matter accumulation (DMA) [8]: 18.80^a %
- Mean Height Reduction (PH) [8]: 18.73^a %
- Phytotoxicity Index (PI) (scale 0-9) [8]: 8.5^c
- Dry Matter accumulation (DMA) [9]: 74.4% and 74.36^c %
- Mean Height Reduction (PH) [9]: 77.04^b %
- Phytotoxicity Index (PI) (scale 0-9) [9]: 0.00^a
- Dry Matter accumulation (DMA) [10]: 72.66^c %
- Mean Height Reduction (PH) [10]: 62% and 61.99^b %
- Dry Matter accumulation (DMA) [11]: 19.90^a %
- Mean Height Reduction (PH) [11]: 22.45^a %
- Phytotoxicity Index (PI) (scale 0-9) [11]: 8.67 ^d
- Dry Matter accumulation (DMA) [12]: 18.23^a %
- Mean Height Reduction (PH) [12]: 20.56^a %
- Phytotoxicity Index (PI) (scale 0-9) [12]: 8.82^cd
